Patent US5962502A, “Polyamidic acid derivatives with antigastrin activity, a method for their preparation, and their pharmaceutical use” (priority 1993, dated 1999)

Experiments:
[1] = target: T1, central CCK-B receptor (Cavia porcellus, UniProt H0VZC5); assay: Inhibition of the binding of [3-H][N-methyl-N-leucine]CCK-8 to guinea-pig cortical membranes; conditions: for IC50: guinea-pig cortical membranes, 150 minutes at 25° C.
T1 construct: Cerebral cortices of male white guinea-pigs were thus used; from tissue; host or cells: cerebral cortex membranes of male white guinea-pigs
T1 sequence (H0VZC5 1-426): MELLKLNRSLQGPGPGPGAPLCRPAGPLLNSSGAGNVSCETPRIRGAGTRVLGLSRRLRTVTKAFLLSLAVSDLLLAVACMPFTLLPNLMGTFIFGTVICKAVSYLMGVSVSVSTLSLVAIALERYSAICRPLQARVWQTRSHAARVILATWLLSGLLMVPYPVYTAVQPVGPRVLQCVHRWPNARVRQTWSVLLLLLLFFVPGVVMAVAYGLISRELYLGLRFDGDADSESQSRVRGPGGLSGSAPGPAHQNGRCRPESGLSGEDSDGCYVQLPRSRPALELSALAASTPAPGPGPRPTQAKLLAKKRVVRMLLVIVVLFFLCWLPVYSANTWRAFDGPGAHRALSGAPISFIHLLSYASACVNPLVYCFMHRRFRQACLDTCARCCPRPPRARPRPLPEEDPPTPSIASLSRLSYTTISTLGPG
Description: The ability of the compounds of the invention to interact with the central CCK-B receptor was evaluated with the use of non-sulphated [3-H] […] 225 (3) (1990), 1278-1286].
Cerebral cortices of male white guinea-pigs were thus used, according to the method mentioned above, so as to obtain a membrane content corresponding to about 300 mcg of proteins/ml. The membranes were incubated together with the radioactive tracer and the compounds under test for 150 minutes at 25° C. After the supernatant had been discarded, the radioactivity associated with the pellet was determined with a liquid scintillator. The specific binding was determined as the difference between the binding in the absence and in the presence of 5.10^-6 M CCK-8.

[2] = tested on: mouse; assay: Black and White Box test in the mouse (anxiolytic activity); assay type: in vivo; conditions: for LIGHT TIME TOTAL TIME / LIGHT-DARK MOVEMENTS / MOV. DARK % TOTAL MOV. / TOTAL MOVEMENTS: 5 minutes; for anxiolytic activity, result in words: Black and White Box test, IP
Description: It has recently been postulated that the central CCK-B receptor has an important role in anxiety. This is in accordance with studies also carried out in man, which have shown that the central CCK-B mechanisms have an important function in the mediation of panic attacks [Bradwejn, H. et al; J. Psychopharmacology 6 (1992), 345]. […] This experimental model, which was carried out according to Costall et al [Pharm. Biochem. Behav. 32 (1989), 777-785], used a box with dimensions of 45×21×21(h) cm divided into 2 compartments which communicated with one another through a 13×5 cm hole. The smaller compartment (1/3 of the total area) had black walls, whereas the larger had transparent walls and was illuminated by a lamp which was placed 20 cm above the box and supplied light at 20W. Under the floor there was an activity meter which recorded the movements performed by the animal in the individual compartments. The experiment was started by placing the animal in the centre of the illuminated box; as well as movements, the time which the animal spent in the dark and in the light areas and the number of movements between the 2 compartments were then recorded for 5 minutes. A control animal generally preferred to stay in the dark compartment where it felt better protected from an unusual environmental situation which put it in a state of anxiety. In this experimental model, a compound having anxiolytic activity decreased the % of movements into the dark in comparison with the total movements, increased the movements between the two light-dark compartments, and increased the % of time spent in the light in comparison with the total time.
The results obtained are shown in Table 7, where the activities obtained with compounds 9, 21 and 51 are given, tested in comparison with diazepam.

`O=C(CC[C@@H](NC(=O)c1cc(Cl)cc(Cl)c1)C(=O)N1CCC2(CCCC2)CC1)N[C@H](Cc1cccnc1)C(=O)O` [Compound 26] gave an IC50 [1] of 0.25 µM.
Compound `O=C(O)Cc1ccc(NC(=O)CC[C@@H](NC(=O)c2cc(Cl)cc(Cl)c2)C(=O)N2CCC3(CCCC3)CC2)cc1` [Compound 57] has an IC50 [1] of 7.73 µM.
In the case of `O=C(CC[C@@H](NC(=O)c1cccc(Cl)c1)C(=O)NCCC12CC3CC(CC(C3)C1)C2)N[C@H](Cc1c[nH]c2ccccc12)C(=O)O` [Compound 31], the IC50 [1] is reported as 13.9 µM.
Compound `CN(C(=O)[C@@H](CCC(=O)O)NC(=O)CC[C@@H](NC(=O)c1cc(Cl)cc(Cl)c1)C(=O)N1CCC2(CCCC2)CC1)c1ccccc1` [Compound 37] has an IC50 [1] of 0.7 µM.
`O=C(O)CNC(=O)CC[C@@H](NC(=O)c1cc(Cl)cc(Cl)c1)C(=O)N1CCC2(CCCC2)CC1` [Compound 1] was tested, and the IC50 [1] was 1.06 µM.
For `CC(C)(C)CCNC(=O)[C@@H](CCC(=O)NC(Cc1ccccc1)C(=O)O)NC(=O)c1cccc(Cl)c1` (stereo partly drawn) [Compound 33], the IC50 [1] was > 30 µM.
`CSCCC(NC(=O)CC[C@@H](NC(=O)c1cc(Cl)cc(Cl)c1)C(=O)N1CCC2(CCCC2)CC1)C(=O)O` (stereo partly drawn) [Compound 7] gave an IC50 [1] of 0.51 µM.
For `O=C(CC[C@@H](NC(=O)c1cc(Cl)cc(Cl)c1)C(=O)N1CCC2(CCCC2)CC1)NC(Cc1ccc(Cl)cc1)C(=O)O` (stereo partly drawn) [Compound 17], the IC50 [1] was 0.68 µM.
Compound `O=C(O)CCNC(=O)CC[C@@H](NC(=O)c1cc(Cl)cc(Cl)c1)C(=O)N1CCC2(CCCC2)CC1` [Compound 3] has an IC50 [1] of 0.73 µM.
Work on `O=C(O)CC[C@@H](NC(=O)CC[C@@H](NC(=O)c1cc(Cl)cc(Cl)c1)C(=O)N1CCC2(CCCC2)CC1)C(=O)N1CCC2(CCCC2)CC1` [Compound 36] yielded an IC50 [1] of 1.7 µM.
`O=C(C[C@@H](NC(=O)c1cc(Cl)cc(Cl)c1)C(=O)N1CCC2(CCCC2)CC1)N[C@H](Cc1ccccc1)C(=O)O` [Compound 44] showed an IC50 [1] of 0.35 µM.
For `O=C(CC[C@@H](NC(=O)c1cc(Cl)cc(Cl)c1)C(=O)N1CCC2(CCCC2)CC1)NCc1ccc(C(=O)O)cc1` [Compound 56], the IC50 [1] was 19.5 µM.
`O=C(CC[C@@H](NC(=O)c1cc(Cl)cc(Cl)c1)C(=O)N1CCC2(CCCC2)CC1)N[C@@H](C(=O)O)c1ccccc1` [Compound 13] showed an IC50 [1] of 0.42 µM.
`O=C(CC[C@@H](NC(=O)c1ccccc1)C(=O)N1CCC2(CCCC2)CC1)Nc1ccc(C(=O)O)cc1` [Compound 54] was tested, and the IC50 [1] was 9.21 µM.
`CN(C(=O)CC[C@@H](NC(=O)c1cc(Cl)cc(Cl)c1)C(=O)N1CCC2(CCCC2)CC1)c1ccc(C(=O)O)cc1` [Compound 48] showed an IC50 [1] of 0.44 µM.
`O=C(C[C@@H](NC(=O)c1cc(Cl)cc(Cl)c1)C(=O)N1CCC2(CCCC2)CC1)Nc1ccccc1C(=O)O` [Compound 55] was tested, and the IC50 [1] was > 30 µM.
With `CCCCCN(CCCCC)C(=O)[C@@H](CCC(=O)N[C@H](Cc1c[nH]c2ccccc12)C(=O)O)NC(=O)c1ccc2ccccc2c1` [Compound 42] the IC50 [1] was 1.88 µM.
For `CN1C(=O)CN=C(c2ccccc2)c2cc(Cl)ccc21` [DIAZEPAM, diazepam, reference compound], the “EFF. % VS CONTROL (LIGHT TIME TOTAL TIME)” value ([2]; 1.0 mg/kg IP) was 19%, the “EFF. % VS CONTROL (LIGHT-DARK MOVEMENTS)” value ([2]; 1.0 mg/kg IP) was 37% and the “EFF. % VS CONTROL (MOV. DARK % TOTAL MOV.)” value ([2]; 1.0 mg/kg IP) was -5%. For the same compound, the “LIGHT TIME TOTAL TIME” value ([2]; 1.0 mg/kg IP) was 29.3%, the “LIGHT-DARK MOVEMENTS” value ([2]; 1.0 mg/kg IP) was 19.9 and the “MOV. DARK % TOTAL MOV.” value ([2]; 1.0 mg/kg IP) was 53%. For the same compound, the “TOTAL MOVEMENTS” value ([2]; 1.0 mg/kg IP) was 508, the “EFF. % VS CONTROL (LIGHT TIME TOTAL TIME)” value ([2]; 3.0 mg/kg IP) was 37% and the “EFF. % VS CONTROL (LIGHT-DARK MOVEMENTS)” value ([2]; 3.0 mg/kg IP) was 54%. For the same compound, the “EFF. % VS CONTROL (MOV. DARK % TOTAL MOV.)” value ([2]; 3.0 mg/kg IP) was -7%, the “LIGHT TIME TOTAL TIME” value ([2]; 3.0 mg/kg IP) was 33.6% and the “LIGHT-DARK MOVEMENTS” value ([2]; 3.0 mg/kg IP) was 22.3. For the same compound, the “MOV. DARK % TOTAL MOV.” value ([2]; 3.0 mg/kg IP) was 52%, the “TOTAL MOVEMENTS” value ([2]; 3.0 mg/kg IP) was 539 and the “effect on the total movements parameter, result in words” value ([2]; 1 and 3 mg/kg) was “significantly increased”. The “anxiolytic activity, result in words” value [2] was “active for all the parameters tested”.
In the case of `O=C(CC[C@@H](NC(=O)c1cc(Cl)cc(Cl)c1)C(=O)N1CCC2(CCCC2)CC1)Nc1cccc(C(=O)O)c1` [Compound 49], the IC50 [1] is reported as 1.39 µM.
`O=C(O)CC[C@@H](NC(=O)CC[C@@H](NC(=O)c1cc(Cl)cc(Cl)c1)C(=O)N1CCC2(CCCC2)CC1)C(=O)NCCC12CC3CC(CC(C3)C1)C2` [Compound 40] was tested, and the IC50 [1] was > 30 µM.
Compound `O=C(O)CC[C@@H](NC(=O)CC[C@@H](NC(=O)c1cc(Cl)cc(Cl)c1)C(=O)N1CCC2(CCCC2)CC1)C(=O)Nc1ccc2ccccc2c1` [Compound 39] has an IC50 [1] of 0.7 µM.
Compound `CC(NC(=O)CC[C@@H](NC(=O)c1cc(Cl)cc(Cl)c1)C(=O)N1CCC2(CCCC2)CC1)C(=O)O` (stereo partly drawn) [Compound 5] has an IC50 [1] of 1.32 µM.
Compound `O=C(O)CCCNC(=O)CC[C@@H](NC(=O)c1cc(Cl)cc(Cl)c1)C(=O)N1CCC2(CCCC2)CC1` [Compound 4] has an IC50 [1] of 1.25 µM.
Work on `O=C(O)CC[C@@H](NC(=O)CC[C@@H](NC(=O)c1cc(Cl)cc(Cl)c1)C(=O)N1CCC2(CCCC2)CC1)C(=O)NCCc1ccccc1` [Compound 41] yielded an IC50 [1] of 0.79 µM.
In the case of `CN(C(=O)c1cc(Cl)cc(Cl)c1)[C@H](CCC(=O)N[C@H](Cc1c[nH]c2ccccc12)C(=O)O)C(=O)N1CCC2(CCCC2)CC1` [Compound 46], the IC50 [1] is reported as 0.12 µM.
Compound `CC(Cc1ccccc1)(NC(=O)CC[C@@H](NC(=O)c1cc(Cl)cc(Cl)c1)C(=O)N1CCC2(CCCC2)CC1)C(=O)O` (stereo partly drawn) [Compound 45] has an IC50 [1] of 0.58 µM.
In the case of `O=C(CC[C@H](NC(=O)c1cc(Cl)cc(Cl)c1)C(=O)N1CCC2(CCCC2)CC1)N[C@H](Cc1ccccc1)C(=O)O` [Compound S-9, reference compound], the “EFF. % VS CONTROL (LIGHT TIME TOTAL TIME)” value ([2]; 1.0 mg/kg IP) is reported as 3%, the “EFF. % VS CONTROL (LIGHT-DARK MOVEMENTS)” value ([2]; 1.0 mg/kg IP) is reported as 6% and the “EFF. % VS CONTROL (MOV. DARK % TOTAL MOV.)” value ([2]; 1.0 mg/kg IP) is reported as -5%. The “LIGHT TIME TOTAL TIME” value ([2]; 1.0 mg/kg IP) was 28.5%, the “LIGHT-DARK MOVEMENTS” value ([2]; 1.0 mg/kg IP) was 18.2 and the “MOV. DARK % TOTAL MOV.” value ([2]; 1.0 mg/kg IP) was 57%. For the same compound, the “TOTAL MOVEMENTS” value ([2]; 1.0 mg/kg IP) was 528, the “EFF. % VS CONTROL (LIGHT TIME TOTAL TIME)” value ([2]; 10.0 mg/kg IP) was 0% and the “EFF. % VS CONTROL (LIGHT-DARK MOVEMENTS)” value ([2]; 10.0 mg/kg IP) was 0%. The “EFF. % VS CONTROL (MOV. DARK % TOTAL MOV.)” value ([2]; 10.0 mg/kg IP) was “+3%”, the “LIGHT TIME TOTAL TIME” value ([2]; 10.0 mg/kg IP) was 24.9% and the “LIGHT-DARK MOVEMENTS” value ([2]; 10.0 mg/kg IP) was 14.4. For the same compound, the “MOV. DARK % TOTAL MOV.” value ([2]; 10.0 mg/kg IP) was 62%, the “TOTAL MOVEMENTS” value ([2]; 10.0 mg/kg IP) was 495 and the “anxiolytic activity, result in words” value [2] was “completely inactive”. For the same compound, the “times less active than its R diastereoisomer, compound 9 (centre *)” value ([1]; binding, guinea-pig cortex) was “about 250 times”, the IC50 [1] was 38.6 µM and the “CCK-B-antagonistic activity in vitro, result in words” value ([1]; see Table 3) was “weak CCK-B-antagonistic activity”.
For `Cc1cccc(C(=O)N[C@H](CCC(=O)N[C@H](Cc2c[nH]c3ccccc23)C(=O)O)C(=O)N2CCC3(CCCC3)CC2)c1` [Compound 32], the IC50 [1] was 3.56 µM.
